# Experimental data from patent US11331314B2, “Amine substituted triazole derivatives and uses thereof” (Bayer Pharma Aktiengesellschaft, priority 2017, dated 2022).
# pIC50: −log10 of the molar value.
# Columns and labels:
# human V2 receptor = target: T1, human V2 receptor (Homo sapiens, UniProt P30518); assay: Cellular in vitro assay for determining vasopressin receptor activity, V2 receptor cell line (CRE-luciferase); type: cell-based; conditions: CHO cell line transfected with the human V2 receptor; agonist [Arg8]-vasopressin at EC50 concentration; read-out: IC50 hV2
# T1 construct: expressed in transfected cells; host or cells: CHO K1 (ATCC) expressing firefly luciferase under a CRE-responsive promoter
# human V1a receptor = human V1a receptor (Homo sapiens, UniProt P37288); assay: Cellular in vitro assay for determining vasopressin receptor activity, V1a receptor cell line (photoprotein luminescence); type: cell-based; conditions: for pIC50: CHO cell line transfected with the human V1a receptor, agonist [Arg8]-vasopressin at EC50 concentration, read-out: IC50 hV1a; for ratio IC50 hV2/hV1a: selectivity ratio of the cellular IC50 values
# Summary of the method: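 CHO K1 cells stably expressing human V1a receptor with aequorin photoprotein, loaded overnight with coelenterazine. Compounds preincubated 10 min at various concentrations, then challenged with [Arg^8]-vasopressin at EC50 concentration. Calcium-driven luminescence read immediately; IC50 values derived.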
# T1 sequence (P30518 whole entry): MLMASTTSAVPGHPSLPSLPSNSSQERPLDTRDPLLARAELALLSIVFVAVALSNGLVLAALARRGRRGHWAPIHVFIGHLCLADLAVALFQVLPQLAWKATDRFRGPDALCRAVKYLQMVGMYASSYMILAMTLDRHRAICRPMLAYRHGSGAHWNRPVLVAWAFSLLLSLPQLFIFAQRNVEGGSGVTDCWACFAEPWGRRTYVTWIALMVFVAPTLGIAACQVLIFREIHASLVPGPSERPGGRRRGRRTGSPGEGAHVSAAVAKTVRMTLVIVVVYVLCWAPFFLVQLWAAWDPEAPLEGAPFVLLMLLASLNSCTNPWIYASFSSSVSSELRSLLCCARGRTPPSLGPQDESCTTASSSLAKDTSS
# Sequence of human V1a receptor (P37288 whole entry): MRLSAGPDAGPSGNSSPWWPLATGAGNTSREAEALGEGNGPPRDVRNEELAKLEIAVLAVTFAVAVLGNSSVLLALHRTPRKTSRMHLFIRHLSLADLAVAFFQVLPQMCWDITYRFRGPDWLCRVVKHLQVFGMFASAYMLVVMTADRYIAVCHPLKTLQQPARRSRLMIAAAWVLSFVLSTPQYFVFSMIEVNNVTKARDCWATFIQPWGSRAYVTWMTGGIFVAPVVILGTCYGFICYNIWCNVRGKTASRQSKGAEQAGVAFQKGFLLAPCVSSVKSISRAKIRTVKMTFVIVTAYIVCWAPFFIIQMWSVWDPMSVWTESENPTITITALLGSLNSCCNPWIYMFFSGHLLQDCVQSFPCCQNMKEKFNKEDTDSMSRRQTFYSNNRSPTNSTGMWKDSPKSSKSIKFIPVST
Structure (SMILES),pIC50 (human V2 receptor),pIC50 (human V1a receptor),ratio IC50 hV2/hV1a (human V1a receptor)
"O=C1CN(c2nc(Cn3nc(-c4ccc(Cl)cc4)n(C[C@H](O)C(F)(F)F)c3=O)nn2-c2ccccc2Cl)CCN1 [Example 48, 4-[1-(2-Chlorophenyl)-3-({3-(4-chlorophenyl)-5-oxo-4-[(2S)-3,3,3-trifluoro-2-hydroxypropyl]-4,5-dihydro-1H-1,2,4-triazol-1-yl}methyl)-1H-1,2,4-triazol-5-yl]piperazin-2-one]",7.98,9.19,16.3
"C[C@@H](O)CNc1nc(Cn2nc(-c3ccc(Cl)cc3)n(C[C@H](O)C(F)(F)F)c2=O)nn1-c1ccccc1Cl [Example 49, 5-(4-Chlorophenyl)-2-{[1-(2-chlorophenyl)-5-{[(2R)-2-hydroxypropyl]amino}-1H-1,2,4-triazol-3-yl]methyl}-4-[(2S)-3,3,3-trifluoro-2-hydroxypropyl]-2,4-dihydro-3H-1,2,4-triazol-3-one]",8.71,9.20,3.1
"C[C@H](O)CNc1nc(Cn2nc(-c3ccc(Cl)cc3)n(C[C@H](O)C(F)(F)F)c2=O)nn1-c1ccccc1Cl [Example 50, 5-(4-Chlorophenyl)-2-{[1-(2-chlorophenyl)-5-{[(2S)-2-hydroxypropyl]amino}-1H-1,2,4-triazol-3-yl]methyl}-4-[(2S)-3,3,3-trifluoro-2-hydroxypropyl]-2,4-dihydro-3H-1,2,4-triazol-3-one]",8.68,9.33,4.5
"CS(=O)(=O)CCNc1nc(Cn2nc(-c3ccc(Cl)cc3)n(C[C@H](O)C(F)(F)F)c2=O)nn1-c1ccccc1Cl [Example 51, 5-(4-Chlorophenyl)-2-{[1-(2-chlorophenyl)-5-{[2-(methylsulfonyl)ethyl]amino}-1H-1,2,4-triazol-3-yl]methyl}-4-[(2S)-3,3,3-trifluoro-2-hydroxypropyl]-2,4-dihydro-3H-1,2,4-triazol-3-one]",8.76,9.15,2.5
"O=c1n(Cc2nc(NCC3(O)CCC3)n(-c3ccccc3Cl)n2)nc(-c2ccc(Cl)cc2)n1C[C@H](O)C(F)(F)F [Example 52, 5-(4-Chlorophenyl)-2-{[1-(2-chlorophenyl)-5-{[(1-hydroxycyclobutyl)methyl]amino}-1H-1,2,4-triazol-3-yl]methyl}-4-[(2S)-3,3,3-trifluoro-2-hydroxypropyl]-2,4-dihydro-3H-1,2,4-triazol-3-one]",9.08,9.19,1.3
"O=c1n(Cc2nc(NCC3(O)CC3)n(-c3ccccc3Cl)n2)nc(-c2ccc(Cl)cc2)n1C[C@H](O)C(F)(F)F [Example 54, 5-(4-Chlorophenyl)-2-{[1-(2-chlorophenyl)-5-{[(1-hydroxycyclopropyl)methyl]amino}-1H-1,2,4-triazol-3-yl]methyl}-4-[(2S)-3,3,3-trifluoro-2-hydroxypropyl]-2,4-dihydro-3H-1,2,4-triazol-3-one]",8.81,9.27,2.9
"O=c1n(Cc2nc(N3CCS(=O)(=O)CC3)n(-c3ccccc3Cl)n2)nc(-c2ccc(Cl)cc2)n1C[C@H](O)C(F)(F)F [Example 55, 5-(4-Chlorophenyl)-2-{[1-(2-chlorophenyl)-5-(1,1-dioxidothiomorpholin-4-yl)-1H-1,2,4-triazol-3-yl]methyl}-4-[(2S)-3,3,3-trifluoro-2-hydroxypropyl]-2,4-dihydro-3H-1,2,4-triazol-3-one]",7.59,9.41,67.1
"NC(=O)[C@@H]1CCN(c2nc(Cn3nc(-c4ccc(Cl)cc4)n(C[C@H](O)C(F)(F)F)c3=O)nn2-c2ccccc2Cl)C1 [Example 56, (3R)-1-[1-(2-Chlorophenyl)-3-({3-(4-chlorophenyl)-5-oxo-4-[(2S)-3,3,3-trifluoro-2-hydroxypropyl]-4,5-dihydro-1H-1,2,4-triazol-1-yl}methyl)-1H-1,2,4-triazol-5-yl]pyrrolidine-3-carboxamide]",8.25,9.14,7.7
"NC(=O)[C@H]1CCN(c2nc(Cn3nc(-c4ccc(Cl)cc4)n(C[C@H](O)C(F)(F)F)c3=O)nn2-c2ccccc2Cl)C1 [Example 57, (3S)-1-[1-(2-Chlorophenyl)-3-({3-(4-chlorophenyl)-5-oxo-4-[(2S)-3,3,3-trifluoro-2-hydroxypropyl]-4,5-dihydro-1H-1,2,4-triazol-1-yl}methyl)-1H-1,2,4-triazol-5-yl]pyrrolidine-3-carboxamide]",8.31,9.13,6.6
"NC(=O)[C@@H]1CCCN1c1nc(Cn2nc(-c3ccc(Cl)cc3)n(C[C@H](O)C(F)(F)F)c2=O)nn1-c1ccccc1Cl [Example 58, 1-[1-(2-Chlorophenyl)-3-({3-(4-chlorophenyl)-5-oxo-4-[(2S)-3,3,3-trifluoro-2-hydroxypropyl]-4,5-dihydro-1H-1,2,4-triazol-1-yl}methyl)-1H-1,2,4-triazol-5-yl]-L-prolinamide]",7.66,8.78,13.3
"NC(=O)[C@H]1CCCN1c1nc(Cn2nc(-c3ccc(Cl)cc3)n(C[C@H](O)C(F)(F)F)c2=O)nn1-c1ccccc1Cl [Example 59, 1-[1-(2-Chlorophenyl)-3-({3-(4-chlorophenyl)-5-oxo-4-[(2S)-3,3,3-trifluoro-2-hydroxypropyl]-4,5-dihydro-1H-1,2,4-triazol-1-yl}methyl)-1H-1,2,4-triazol-5-yl]-D-prolinamide]",7.40,8.64,17.2
"NCCNc1nc(Cn2nc(-c3ccc(Cl)cc3)n(C[C@H](O)C(F)(F)F)c2=O)nn1-c1ccccc1Cl [Example 70, 2-({5-[(2-Aminoethyl)amino]-1-(2-chlorophenyl)-1H-1,2,4-triazol-3-yl}methyl)-5-(4-chlorophenyl)-4-[(2S)-3,3,3-trifluoro-2-hydroxypropyl]-2,4-dihydro-3H-1,2,4-triazol-3-one]",7.66,9.05,24.4
"CC(=O)NCCNc1nc(Cn2nc(-c3ccc(Cl)cc3)n(C[C@H](O)C(F)(F)F)c2=O)nn1-c1ccccc1Cl [Example 71, N-(2-{[1-(2-Chlorophenyl)-3-({3-(4-chlorophenyl)-5-oxo-4-[(2S)-3,3,3-trifluoro-2-hydroxypropyl]-4,5-dihydro-1H-1,2,4-triazol-1-yl}methyl)-1H-1,2,4-triazol-5-yl]amino}ethyl)acetamide]",8.62,9.36,5.5
"O=c1n(Cc2nc(N3CCNCC3)n(-c3ccccc3Cl)n2)nc(-c2ccc(Cl)cc2)n1C[C@H](O)C(F)(F)F [Example 72, 5-(4-Chlorophenyl)-2-{[1-(2-chlorophenyl)-5-(piperazin-1-yl)-1H-1,2,4-triazol-3-yl]methyl}-4-[(2S)-3,3,3-trifluoro-2-hydroxypropyl]-2,4-dihydro-3H-1,2,4-triazol-3-one]",7.76,9.24,30.2
"O=c1n(Cc2nc(NCC3CS(=O)(=O)C3)n(-c3ccccc3Cl)n2)nc(-c2ccc(Cl)cc2)n1C[C@H](O)C(F)(F)F [Example 73, 5-(4-Chlorophenyl)-2-{[1-(2-chlorophenyl)-5-{[(1,1-dioxidothietan-3-yl)methyl]amino}-1H-1,2,4-triazol-3-yl]methyl}-4-[(2S)-3,3,3-trifluoro-2-hydroxypropyl]-2,4-dihydro-3H-1,2,4-triazol-3-one]",8.02,8.95,8.4
"NC(=O)C1CN(c2nc(Cn3nc(-c4ccc(Cl)cc4)n(C[C@H](O)C(F)(F)F)c3=O)nn2-c2ccccc2Cl)C1 [Example 74, 1-[1-(2-Chlorophenyl)-3-({3-(4-chlorophenyl)-5-oxo-4-[(2S)-3,3,3-trifluoro-2-hydroxypropyl]-4,5-dihydro-1H-1,2,4-triazol-1-yl}methyl)-1H-1,2,4-triazol-5-yl]azetidine-3-carboxamide]",8.44,9.32,7.5
"CC(=O)N1CCN(c2nc(Cn3nc(-c4ccc(Cl)cc4)n(C[C@H](O)C(F)(F)F)c3=O)nn2-c2ccccc2Cl)CC1 [Example 75, 2-{[5-(4-Acetylpiperazin-1-yl)-1-(2-chlorophenyl)-1H-1,2,4-triazol-3-yl]methyl}-5-(4-chlorophenyl)-4-[(2S)-3,3,3-trifluoro-2-hydroxypropyl]-2,4-dihydro-3H-1,2,4-triazol-3-one]",8.05,9.09,11.0
"CC1(C)CN(c2nc(Cn3nc(-c4ccc(Cl)cc4)n(C[C@H](O)C(F)(F)F)c3=O)nn2-c2ccccc2Cl)CCN1 [Example 76, 5-(4-Chlorophenyl)-2-{[1-(2-chlorophenyl)-5-(3,3-dimethylpiperazin-1-yl)-1H-1,2,4-triazol-3-yl]methyl}-4-[(2S)-3,3,3-trifluoro-2-hydroxypropyl]-2,4-dihydro-3H-1,2,4-triazol-3-one]",7.35,9.38,108.4
"CC1(CNc2nc(Cn3nc(-c4ccc(Cl)cc4)n(C[C@H](O)C(F)(F)F)c3=O)nn2-c2ccccc2Cl)COC1 [Example 78, 5-(4-Chlorophenyl)-2-{[1-(2-chlorophenyl)-5-{[(3-methyloxetan-3-yl)methyl]amino}-1H-1,2,4-triazol-3-yl]methyl}-4-[(2S)-3,3,3-trifluoro-2-hydroxypropyl]-2,4-dihydro-3H-1,2,4-triazol-3-one]",8.79,9.10,2.1
